Assay results published in patent publication US8557860B2, “Cyclopentane heptan(ENE)OIC acid, 2-heteroarylalkenyl derivatives as therapeutic agents” (Allergan, Inc., priority 2004, dated 2013).

Tests used:
Type in all cases: cell-based
[1] = target: T1, hTP (Homo sapiens, UniProt P21731); assay: FLIPR calcium signal study, hTP; details: HEK-293(EBNA) cells, recombinant human receptor, read-out: FUNCTIONAL DATA (EC50 nm) HTP
T1 construct: expressed in transfected cells; host or cells: HEK-293(EBNA)
T1 sequence (P21731 1-343): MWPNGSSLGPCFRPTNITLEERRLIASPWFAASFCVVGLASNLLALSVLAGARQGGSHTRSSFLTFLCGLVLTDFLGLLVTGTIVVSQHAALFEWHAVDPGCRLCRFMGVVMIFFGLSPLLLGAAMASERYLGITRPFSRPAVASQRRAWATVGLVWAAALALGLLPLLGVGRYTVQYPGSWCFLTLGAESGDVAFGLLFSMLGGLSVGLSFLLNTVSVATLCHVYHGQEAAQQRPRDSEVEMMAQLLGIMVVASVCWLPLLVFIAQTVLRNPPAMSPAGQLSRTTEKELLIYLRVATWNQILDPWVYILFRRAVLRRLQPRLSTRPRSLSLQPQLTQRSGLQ
Procedure: (§1) HEK-293(EBNA) cells, stably expressing one type or subtype of recombinant human prostaglandin receptors (prostaglandin receptors expressed: hDP/Gqs5; hEP1; hEP2/Gqs5; hEP3A/Gqi5; hEP4/Gqs5; hFP; hIP; hTP), were cultured in 100 mm culture dishes in high-glucose DMEM medium containing 10% fetal bovine serum, 2 mM 1-glutamine, 250 μg/ml geneticin (G418) and 200 μg/ml hygromycin B as selection markers, and 100 units/ml penicillin G, 100 μg/ml streptomycin and 0.25 μg/ml amphotericin B.
(§2) Cells were seeded at a density of 5×10^4 cells per well in Biocoat® Poly-D-lysine-coated black-wall, clear-bottom 96-well plates (Becton-Dickinson) and allowed to attach overnight in an incubator at 37° C. Cells were then washed two times with HBSS-HEPES buffer (Hanks Balanced Salt Solution without bicarbonate and phenol red, 20 mM HEPES, pH 7.4) using a Denley Cellwash plate washer (Labsystems). After 45 minutes of dye-loading in the dark, using the calcium-sensitive dye Fluo-4 AM at a final concentration of 2 μM, plates were washed four times with HBSS-HEPES buffer to remove excess dye leaving 100 μl in each well. Plates were re-equilibrated to 37° C. for a few minutes.
(§3) Cells were excited with an Argon laser at 488 nm, and emission was measured through a 510-570 nm bandwidth emission filter (FLIPR™, Molecular Devices, Sunnyvale, Calif.). Drug solution was added in a 50 μl volume to each well to give the desired final concentration. The peak increase in fluorescence intensity was recorded for each well. On each plate, four wells each served as negative (HBSS-HEPES buffer) and positive controls (standard agonists: BW245C (hDP); PGE2 (hEP1; hEP2/Gqs5; hEP3A/Gqi5; hEP4/Gqs5); PGF2α (hFP); carbacyclin (hIP); U-46619 (hTP), depending on receptor). The peak fluorescence change in each drug-containing well was then expressed relative to the controls.
(§4) Compounds were tested in a high-throughput (HTS) or concentration-response (CoRe) format. […]

[2] = target: T2, hEP3A/Gqi5 (Homo sapiens, UniProt P43115); assay: FLIPR calcium signal study, hEP3A/Gqi5; details: HEK-293(EBNA) cells, recombinant human receptor, read-out: FUNCTIONAL DATA (EC50 nm) HEP3A
T2 construct: expressed in transfected cells; host or cells: HEK-293(EBNA)
T2 sequence (P43115 1-390): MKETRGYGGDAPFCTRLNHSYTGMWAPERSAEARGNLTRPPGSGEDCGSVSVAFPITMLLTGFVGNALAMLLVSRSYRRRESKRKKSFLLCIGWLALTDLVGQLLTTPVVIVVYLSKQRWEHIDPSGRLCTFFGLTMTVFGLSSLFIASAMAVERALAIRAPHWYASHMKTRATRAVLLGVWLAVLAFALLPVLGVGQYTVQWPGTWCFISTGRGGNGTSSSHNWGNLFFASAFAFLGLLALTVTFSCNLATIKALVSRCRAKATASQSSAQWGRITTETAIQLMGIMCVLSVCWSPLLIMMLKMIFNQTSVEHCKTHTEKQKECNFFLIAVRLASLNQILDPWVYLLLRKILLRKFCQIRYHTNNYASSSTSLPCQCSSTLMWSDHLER
Procedure: as §1, §2, §3, §4

[3] = target: T3, hFP (Homo sapiens, UniProt P43088); assay: FLIPR calcium signal study, hFP; details: HEK-293(EBNA) cells, recombinant human receptor, read-out: FUNCTIONAL DATA (EC50 nm) HFP
T3 construct: expressed in transfected cells; host or cells: HEK-293(EBNA)
Procedure: as §1
(§5) Cells were seeded at a density of 5×10^4 cells per well in Biocoat® Poly-D-lysine-coated black-wall, clear-bottom 96-well plates (Becton-Dickinson) and allowed to attach overnight in an incubator at 37° C. Cells were then washed two times with HBSS-HEPES buffer (Hanks Balanced Salt Solution without bicarbonate and phenol red, 20 mM HEPES, pH 7.4) using a Denley Cellwash plate washer (Labsystems). […]
(§6) Cells were excited with an Argon laser at 488 nm, and emission was measured through a 510-570 nm bandwidth emission filter (FLIPR™, Molecular Devices, Sunnyvale, Calif.). […] The peak increase in fluorescence intensity was recorded for each well. […] The peak fluorescence change in each drug-containing well was then expressed relative to the controls. […]

[4] = target: T4, hEP1 (Homo sapiens, UniProt P34995); assay: FLIPR calcium signal study, hEP1; details: HEK-293(EBNA) cells, recombinant human receptor, read-out: FUNCTIONAL DATA (EC50 nm) HEP1
T4 construct: expressed in transfected cells; host or cells: HEK-293(EBNA)
T4 sequence (P34995 1-402): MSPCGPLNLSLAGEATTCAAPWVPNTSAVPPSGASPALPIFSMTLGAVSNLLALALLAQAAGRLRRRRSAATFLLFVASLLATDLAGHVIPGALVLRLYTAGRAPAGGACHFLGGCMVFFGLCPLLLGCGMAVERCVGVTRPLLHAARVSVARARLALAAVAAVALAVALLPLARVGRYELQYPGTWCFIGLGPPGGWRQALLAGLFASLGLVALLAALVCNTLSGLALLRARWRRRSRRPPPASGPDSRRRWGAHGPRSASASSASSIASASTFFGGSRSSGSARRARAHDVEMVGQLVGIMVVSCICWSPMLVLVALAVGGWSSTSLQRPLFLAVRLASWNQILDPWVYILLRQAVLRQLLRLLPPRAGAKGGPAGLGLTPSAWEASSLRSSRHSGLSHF
Procedure: as §1, §5, §6

[5] = target: T5, hEP4/Gqs5 (Homo sapiens, UniProt P35408); assay: FLIPR calcium signal study, hEP4/Gqs5; details: HEK-293(EBNA) cells, recombinant human receptor, read-out: FUNCTIONAL DATA (EC50 nm) HEP4
T5 construct: expressed in transfected cells; host or cells: HEK-293(EBNA)
Procedure: as §1, §5, §6

T5 sequence (P35408 whole entry): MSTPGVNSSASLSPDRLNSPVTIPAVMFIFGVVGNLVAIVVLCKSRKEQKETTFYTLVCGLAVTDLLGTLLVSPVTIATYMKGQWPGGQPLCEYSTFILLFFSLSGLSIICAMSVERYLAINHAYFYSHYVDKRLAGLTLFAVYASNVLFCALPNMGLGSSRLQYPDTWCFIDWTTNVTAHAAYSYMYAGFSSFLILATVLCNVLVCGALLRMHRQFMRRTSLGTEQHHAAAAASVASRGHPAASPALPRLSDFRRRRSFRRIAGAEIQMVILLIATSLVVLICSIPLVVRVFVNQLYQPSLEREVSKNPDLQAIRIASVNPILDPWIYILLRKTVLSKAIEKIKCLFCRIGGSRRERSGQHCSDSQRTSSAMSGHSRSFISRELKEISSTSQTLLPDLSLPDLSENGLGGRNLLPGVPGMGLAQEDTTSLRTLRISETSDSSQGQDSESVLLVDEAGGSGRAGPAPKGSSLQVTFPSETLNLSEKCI
T3 sequence (P43088 whole entry): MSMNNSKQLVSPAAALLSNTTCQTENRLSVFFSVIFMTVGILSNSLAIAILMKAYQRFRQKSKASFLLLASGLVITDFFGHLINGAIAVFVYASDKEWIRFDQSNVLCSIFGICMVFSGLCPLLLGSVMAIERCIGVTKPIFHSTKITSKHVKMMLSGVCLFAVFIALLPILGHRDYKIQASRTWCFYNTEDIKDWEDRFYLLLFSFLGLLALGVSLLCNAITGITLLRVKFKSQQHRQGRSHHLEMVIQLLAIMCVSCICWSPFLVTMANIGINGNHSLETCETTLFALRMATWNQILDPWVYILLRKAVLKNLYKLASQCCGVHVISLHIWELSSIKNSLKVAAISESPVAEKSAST

Row | Compound | EC50 [1] [nM] | EC50 [2] [nM] | EC50 [3] [nM] | EC50 [4] [nM] | EC50 [5] [nM]
1 | COC(=O)CCC/C=C\C[C@H]1C(O)CC[C@@H]1/C=C/[C@@H](O)CCc1cc(Br)c(C)s1 (single isomer, unassigned) | 1870 | > 100000 | 2070 |  | 
2 | Cc1sc(CC[C@H](O)/C=C/[C@H]2CCC(O)[C@@H]2C/C=C\CCCC(=O)O)cc1Br (single isomer, unassigned) [drawing 39] | 96 | 793 |  | > 100000 | > 100000
3 | Cc1sc(CC[C@H](O)/C=C/[C@H]2CCC(O)[C@@H]2C/C=C\CCCC(=O)O)cc1Br (single isomer, unassigned) [drawing 40] | > 100000 | > 100000 | > 100000 |  | 832
